According to patent US20230151336A1, “STEM CELL DERIVED SINGLE-ROSETTE BRAIN ORGANOIDS AND RELATED USES THEROF” (The Regents of the University of Michigan, priority 2020, published 2023):

Assays:
Format in all cases: cell-based, human
ventral SOSRS = assay: Ventral SOSRS patterning (immunostaining, size)
Experimental: For ventral SOSRS differentiation, no cyclopamine or CHIR99021 were used. After plating onto Geltrex, 1 μM SAG and 2 μM XAV939 were added the culture media for 1 week. All other procedures were performed identically (FIG. 5).
SOSRS imaged before day 11 were grown on Nunc™ Lab-Tek™ III 8-well chamber slides (Thermo Scientific) and were fixed in paraformaldehyde for 30 min at room temperature (RT). After permeabilization with 0.2% Triton-X 100 for 20 min at RT, cells were incubated in PBS containing 5% normal goat serum with 1% BSA and 0.05% Triton-X100 for 1 h at RT. Older SOSRS were fixed for 30 minutes in suspension and incubated in 30% sucrose overnight at 4 C followed by embedding in TFM medium and freezing on dry ice. The blocks were sectioned on a Cryostat with 20 μM section thickness. All samples were incubated in primary antibody overnight (see Supplemental Table 2 for antibodies and dilutions) in the same blocking buffer at 4° C., washed 4 times in PBS with 0.05% Tween-20 (PBST), and incubated for 90 min with secondary antibody. Cells were washed 3 times in PBST and incubated with bisbenzimide for 5 min. After additional PBS washes, coverslips were mounted on slides with Glycergel mounting medium (Agilent Dako). Images were obtained on a Leica SP5 upright DMI 6000 confocal microscope. […]

[1] = test system: self-organizing single-rosette spheroids (SOSRS); assay: SOSRS cell death and growth during dorsal differentiation
Experimental: iPSC lines were passaged using Accutase (Innovative cell) and replated onto Geltrex-coated (1:50 dilution in DMEM/F12) 12-well plates at 1.5-2×10^5 cells/well in mTeSR1 with 10 μM rho-kinase inhibitor (Y-27632; Tocris, 1254). The medium without the inhibitor was replaced daily until the cells reach 80-100% confluency. The medium was then changed to 3N (50:50 DMEM/F12:neurobasal with N2 and B27 supplements) (see, Shi, Y., et al., Nature Neuroscience 15, 477-486 (2012)) without vitamin A with 2 μM DMH1 (Tocris, 4126), 2 μM XAV939 (Cayman Chemical, 13596), and 10 μM SB431542 (Cayman Chemical, 13031) (4 mL of medium per well). 75% of this medium was changed daily with 1 μM cyclopamine (Cayman Chemical, 11321) added beginning on day 1. On day 4, the monolayer was cut into squares using the StemPro EZ passage tool. The squares were then washed once with PBS and incubated for 2 minutes with L7 hPSC passaging solution (Lonza). After aspirating the L7 solution, the squares were sprayed off the bottom with the same culture medium 1 mL of preconditioned culture media with a P1000 micropipette. An additional 2 mL of fresh culture medium with the 4 inhibitors was added for a final volume of 3 mL. Approximately 200 μL of resuspended squares were then transfer into the wells of 96-well plates preincubated at 37° C. for 20 minutes with 30 μL of 100% Geltrex solution in each well. Up to 16 wells can be made using one monolayer well. Higher densities will result in fusion between nearby SOSRS forming multi-rosette doublets or “strings”. After 48 hours, daily 50% media changes were performed. On day 6 overall (2 days after cutting), the four inhibitors were no longer added but replaced with the 3 μM CHIR99021. After 3-4 additional days of culture, the wells were washed once with PBS and incubated for 2 minutes with L7 solution. The organoids were individually removed using the STRIPPER (Cooper Surgical) with 275 μM tips and plated individually in the wells of a low-adherence U-bottom 96-well plate with 200 μL of 3N medium without vitamin A with 3 μM CHIR99021, BDNF (20 ng/mL), and NT3 (20 ng/mL). […]

[2] = test system: self-organizing single-rosette spheroids (SOSRS); assay: SOSRS neuroteratogen screening (structural read-out of lumen/neurulation)
Experimental: iPSC lines were passaged using Accutase (Innovative cell) and replated onto Geltrex-coated (1:50 dilution in DMEM/F12) 12-well plates at 1.5-2×10^5 cells/well in mTeSR1 with 10 μM rho-kinase inhibitor (Y-27632; Tocris, 1254). The medium without the inhibitor was replaced daily until the cells reach 80-100% confluency. The medium was then changed to 3N (50:50 DMEM/F12:neurobasal with N2 and B27 supplements) (see, Shi, Y., et al., Nature Neuroscience 15, 477-486 (2012)) without vitamin A with 2 μM DMH1 (Tocris, 4126), 2 μM XAV939 (Cayman Chemical, 13596), and 10 μM SB431542 (Cayman Chemical, 13031) (4 mL of medium per well). 75% of this medium was changed daily with 1 μM cyclopamine (Cayman Chemical, 11321) added beginning on day 1. On day 4, the monolayer was cut into squares using the StemPro EZ passage tool. The squares were then washed once with PBS and incubated for 2 minutes with L7 hPSC passaging solution (Lonza). After aspirating the L7 solution, the squares were sprayed off the bottom with the same culture medium 1 mL of preconditioned culture media with a P1000 micropipette. An additional 2 mL of fresh culture medium with the 4 inhibitors was added for a final volume of 3 mL. Approximately 200 μL of resuspended squares were then transfer into the wells of 96-well plates preincubated at 37° C. for 20 minutes with 30 μL of 100% Geltrex solution in each well. Up to 16 wells can be made using one monolayer well. Higher densities will result in fusion between nearby SOSRS forming multi-rosette doublets or “strings”. After 48 hours, daily 50% media changes were performed. On day 6 overall (2 days after cutting), the four inhibitors were no longer added but replaced with the 3 μM CHIR99021. After 3-4 additional days of culture, the wells were washed once with PBS and incubated for 2 minutes with L7 solution. The organoids were individually removed using the STRIPPER (Cooper Surgical) with 275 μM tips and plated individually in the wells of a low-adherence U-bottom 96-well plate with 200 μL of 3N medium without vitamin A with 3 μM CHIR99021, BDNF (20 ng/mL), and NT3 (20 ng/mL). Ideal diameters for picking the SOSRS are between 250-300 μM. Two days later half-fold media changes with 3N with vitamin A, BDNF (20 ng/mL), and NT3 (20 ng/mL) and repeated every other day. After 35 days of differentiation, 3N media with vitamin A without neurotrophic factors (BDNF and NT3) is used for half-fold media changes every other day. Around this time, SOSRS are transferred from the low-adherence 96-well plate to a low-adherence 24 well plate for a necessary increase in media volume due to SOSRS size.
SOSRS imaged before day 11 were grown on Nunc™ Lab-Tek™ III 8-well chamber slides (Thermo Scientific) and were fixed in paraformaldehyde for 30 min at room temperature (RT). After permeabilization with 0.2% Triton-X 100 for 20 min at RT, cells were incubated in PBS containing 5% normal goat serum with 1% BSA and 0.05% Triton-X100 for 1 h at RT. Older SOSRS were fixed for 30 minutes in suspension and incubated in 30% sucrose overnight at 4 C followed by embedding in TFM medium and freezing on dry ice. The blocks were sectioned on a Cryostat with 20 μM section thickness. All samples were incubated in primary antibody overnight (see Supplemental Table 2 for antibodies and dilutions) in the same blocking buffer at 4° C., washed 4 times in PBS with 0.05% Tween-20 (PBST), and incubated for 90 min with secondary antibody. Cells were washed 3 times in PBST and incubated with bisbenzimide for 5 min. After additional PBS washes, coverslips were mounted on slides with Glycergel mounting medium (Agilent Dako). Images were obtained on a Leica SP5 upright DMI 6000 confocal microscope.
This 3D model of human neurulation allowed us to test known neuroteratogens that block a specific pathway necessary for proper neural tube formation. These were the rho-kinase inhibitor, Y-27632, and the non-muscle myosin inhibitor, blebbistatin^26, 27. […]

[3] = addition from day 6-10, 3 μM, FIG. 2

Compound: Oc1nc(-c2ccc(C(F)(F)F)cc2)nc2c1CSCC2 [XAV939, 3,5,7,8-Tetrahydro-2-[4-(trifluoromethyl)phenyl]-4H-thiopyrano[4,3-d]pyri-midin-4-one]
- SOSRS size and MGE specification (ventral SOSRS; continued day 7 to day 14 with SAG, data not shown): increase

Compound: CNC1CCC(N(Cc2cccc(-c3ccncc3)c2)C(=O)c2sc3ccccc3c2Cl)CC1 (stereo not drawn) [SAG]
- NKX2.1/FOXG1 positive cells (ventral SOSRS; one-month SOSRS, SAG instead of CHIR99021 from day 7 to day 14, XAV939 continued): ~100%

Compound: Cc1c[nH]c(-c2cnc(NCCNc3ccc(C#N)cn3)nc2-c2ccc(Cl)cc2Cl)n1 [CHIR99021]
- SOSRS growth [1, 3]: grow more rapidly
- cell death around SOSRS perimeter [1, 3]: blocked the majority of cell death
- PAX6 positive cells ([1]; pulse day 6-10, FIGS. 1i and j): rapid expansion

Compound: C[C@@H](N)[C@H]1CC[C@H](C(=O)Nc2ccncc2)CC1 [Y-27632]
- apical end-feet surface areas (ZO-1) [2]: increased
- lumen circularity [2]: decreased
- lumen/total area [2]: increased

Compound: CC(/C=C/C(=O)NO)=C\[C@@H](C)C(=O)c1ccc(N(C)C)cc1 [TSA]
- replication of the VPA effect on ratio of lumen area to SOSRS area [2]: not replicated

Compound: Cc1ccc2c(c1)C(=O)C1(O)CCN(c3ccccc3)C1=N2 (stereo not drawn) [blebbistatin]
- apical end-feet surface areas (ZO-1) [2]: increased
- lumen circularity [2]: decreased
- lumen/total area [2]: increased
